Data on 50 compounds can be found in patent US9938267B2, “Heterocyclic inhibitors of glutaminase” (Calithera Biosciences, Inc., priority 2011, dated 2018).

pIC50: −log10 of the molar value.

The first test deals with P493-6 (myc "on") cells. Kind of test: Cell proliferation assay (72 hrs, Cell Titer Glo or Viacount FACS). It counts as cell-based. The settings on record: P493-6 (myc on) cells, 72 hrs; read-out: Cell prolif P493 IC50. On the procedure:
P493-6 (myc “on”) cells were maintained in growth media (RPMI-1640, 10% FBS, 2 mM glutamine, 100 units/ml Penicillin and 100 μg/ml streptomycin) at 37° C. with 5% CO2. For compound assay, P493-6 cells were plated in 96-well V-bottom plates on the day of compound addition in 50 μl of growth media at a cell density of 200,000 cells/ml (10,000 cells/well). Compounds were serially diluted in 100% DMSO at 200-times the final concentration. Compounds were diluted 100-fold into growth media and then 50 μl of this mixture was added to cell plates making the final concentration of DMSO 0.5%. Cells were incubated with compound for 72 hrs at 37° C. with 5% CO2 and analyzed for antiproliferative effects either by Cell Titer Glo (Promega) or FACS analysis using the Viacount (Millipore) kit on the Guava instrument.
For `CC1(CC(=O)Nc2ccc(CCCCc3nnc(NC(=O)Cc4cccc(CNC(=O)OC(C)(C)C)c4)s3)nn2)COC(C)(C)OC1` [Compound 529], the pIC50 was 6.80.

Consider `CCCC(=O)OCN(C(=O)C(CO)c1cccc(CNC(=O)OC(C)(C)C)c1)c1nnc(CCCCc2ccc(NC(=O)Cc3ccccc3)nn2)s1` (stereo not drawn) [Compound 567], for which the pIC50 was 7.68.

On to `CC(C(=O)Nc1nnc(CCCCc2ccc(NC(=O)Cc3ccccc3)nn2)s1)c1ccc(F)c(CNC(=O)OC(C)(C)C)c1` (stereo not drawn) [Compound 568], for which the pIC50 was 7.55.

As to `CCNC(=O)CC(C)c1cccc(CC(=O)Nc2ccc(CCCCc3nnc(NC(=O)Cc4cccc(OC(F)(F)F)c4)s3)nn2)c1` (stereo not drawn) [Compound 596], the pIC50 was 6.48.

`O=C(Cc1ccc(OC(F)(F)F)cc1)Nc1ccc(CCCCc2nnc(NC(=O)Cc3ccccc3)s2)nn1` [Compound 615]: the pIC50 is 7.92.

Regarding `O=C(Cc1cccc(OC(F)(F)F)c1)Nc1ccc(CCCCc2nnc(NC(=O)Cn3c(CN4CCOCC4)nc4ccccc43)s2)nn1` [Compound 702], the pIC50 is 6.51.

The test is the same for the next values; noted with them: P493-6, read-out: Cell prolif P493 72 h IC50; P493 cells, 72 h.
With `O=C(C[C@@H](O)c1ccccc1)Nc1nnc(CCSCCc2nnc(NC(=O)C[C@@H](O)C3CCCCC3)s2)s1` [Compound 126], the pIC50 was 4.92.

For the compound `CCOc1ccccc1CC(=O)Nc1nnc(CCCCc2nnc(NC(=O)Cc3ccccc3OC)s2)s1` [Compound 300], the pIC50 was 6.80.

Take `CCOC(=O)Nc1nnc(CCCCc2nnc(NC(=O)Cc3ccccc3)s2)s1` [Compound 369]: the pIC50 was 5.72.

The test is the same for the next values; noted with them: read-out: Cell prolif P493 72 h IC50; P493 cells, 72 h.
Turning to `COC(C(=O)Nc1nnc(CCSCCc2nnc(NC(=O)C(OC)c3ccccc3)s2)s1)c1ccccc1` (stereo not drawn) [Compound 67], the pIC50 is 5.74.

Consider `O=C(Cc1cccc(OCCO)c1)Nc1nnc(CCSCCc2nnc(NC(=O)Cc3cccc(OCCO)c3)s2)s1` [Compound 236], for which the pIC50 was 5.85.

With `O=C(Cc1cccs1)Nc1nnc(CCSCc2nnc(NC(=O)Cc3cccs3)s2)s1` [Compound 237], the pIC50 is 6.60.

Consider `O=C(Cc1cccc(OCCN2CCOCC2)c1)Nc1nnc(CCSCCc2nnc(NC(=O)Cc3cccc(OCCN4CCOCC4)c3)s2)s1` [Compound 240], for which the pIC50 was 5.89.

For `O=C(CN1C(=O)OC[C@H]1c1ccccc1)Nc1nnc(CCSCCc2nnc(NC(=O)CN3C(=O)OC[C@H]3c3ccccc3)s2)s1` [Compound 243], the pIC50 was 4.48.

For the compound `CCOC(=O)Nc1nnc(CCCCc2nnc(NC(=O)Cc3ccccc3)s2)s1` [Compound 244], the pIC50 is 5.77.

Consider `COc1ccccc1CC(=O)Nc1nnc(CCSCCc2nnc(NC(=O)C(CO)c3ccccc3OC)s2)s1` (stereo not drawn) [Compound 246], for which the pIC50 is 5.80.

Turning to `Cc1cccc(CC(=O)Nc2nnc(CCSCCc3nnc(NC(=O)Cc4cccc(C)c4)s3)s2)c1` [Compound 247], the pIC50 is 6.08.

For the compound `COc1ccccc1CC(=O)Nc1nnc(CCSCc2nnc(NC(=O)Cc3ccccc3OC)s2)s1` [Compound 249], the pIC50 is 6.80.

With `COc1cccc(CC(=O)Nc2nnc(CCSCc3nnc(NC(=O)Cc4cccc(OC)c4)s3)s2)c1` [Compound 250], the pIC50 is 6.85.

Take `COc1cccc(C(CO)C(=O)Nc2nnc(CCCCc3nnc(NC(=O)C(CO)c4cccc(OC)c4)s3)s2)c1` (stereo not drawn) [Compound 257]: the pIC50 was 7.14.

As to `COc1cccc(C(CO)C(=O)Nc2nnc(CCSCc3nnc(NC(=O)C(CO)c4cccc(OC)c4)s3)s2)c1` (stereo not drawn) [Compound 258], the pIC50 was 6.74.

Consider `COc1cccc(CC(=O)Nc2nnc(CCSCCc3nnc(NC(=O)Cc4cccc(OC)c4OC)s3)s2)c1OC` [Compound 259], for which the pIC50 was 6.24.

As to `COc1cccc(CC(=O)Nc2nnc(CCCCc3nnc(NC(=O)Cc4cccc(OC)c4OC)s3)s2)c1OC` [Compound 260], the pIC50 is 7.08.

On to `CC(C(=O)Nc1nnc(CCSCCc2nnc(NC(=O)C(C)c3ccccc3Cl)s2)s1)c1ccccc1Cl` (stereo not drawn) [Compound 261], for which the pIC50 was 5.59.

Consider `Cc1ccccc1C(C)C(=O)Nc1nnc(CCSCCc2nnc(NC(=O)C(C)c3ccccc3C)s2)s1` (stereo not drawn) [Compound 262], for which the pIC50 was 5.51.

For the compound `COc1ccccc1CC(=O)Nc1nnc(CCCCc2nnc(NC(=O)Cc3ccccc3OC)s2)s1` [Compound 264], the pIC50 was 8.00.

Regarding `O=C(Cc1cccc(OCCN2CCOCC2)c1)Nc1nnc(CCSCc2nnc(NC(=O)Cc3cccc(OCCN4CCOCC4)c3)s2)s1` [Compound 267], the pIC50 was 6.19.

For `O=C(Cc1ccc2ncccc2c1)Nc1nnc(CCSCCc2nnc(NC(=O)Cc3ccc4ncccc4c3)s2)s1` [Compound 268], the pIC50 is 5.27.

Consider `O=C(Cc1ccc2ncccc2c1)Nc1nnc(CCCCc2nnc(NC(=O)Cc3ccc4ncccc4c3)s2)s1` [Compound 269], for which the pIC50 was 6.28.

Turning to `O=C(Cc1cccc(Br)c1)Nc1nnc(CCSCCc2nnc(NC(=O)Cc3cccc(Br)c3)s2)s1` [Compound 270], the pIC50 is 6.07.

For the compound `CC(C(=O)Nc1nnc(CCCCc2nnc(NC(=O)C(C)c3ccccc3Cl)s2)s1)c1ccccc1Cl` (stereo not drawn) [Compound 274], the pIC50 is 6.17.

Turning to `CC(C)(C)OC(=O)N1CCN(Cc2cccc(CC(=O)Nc3nnc(CCSCc4nnc(NC(=O)Cc5cccc(CN6CCN(C(=O)OC(C)(C)C)CC6)c5)s4)s3)c2)CC1` [Compound 275], the pIC50 was 6.47.

As for `O=C(Cc1cccc(-n2cccn2)c1)Nc1nnc(CCCCc2nnc(NC(=O)Cc3cccc(-n4cccn4)c3)s2)s1` [Compound 285], the pIC50 was 6.85.

On to `O=C(O)Cc1cccc(CC(=O)Nc2nnc(CCCCc3nnc(NC(=O)Cc4cccc(CC(=O)O)c4)s3)s2)c1` [Compound 313], for which the pIC50 is 4.03.

With `CC(C)(C)OC(=O)Nc1cccc(CC(=O)Nc2nnc(CCCCc3nnc(NC(=O)Cc4cccc(NC(=O)OC(C)(C)C)c4)s3)s2)c1` [Compound 327], the pIC50 was 6.82.

For the compound `Nc1cccc(CC(=O)Nc2nnc(CCCCc3nnc(NC(=O)Cc4cccc(N)c4)s3)s2)c1` [Compound 329], the pIC50 is 6.35.

In the case of `O=C(Cc1cccc(Cn2cccn2)c1)Nc1nnc(CCCCc2nnc(NC(=O)Cc3cccc(Cn4cccn4)c3)s2)s1` [Compound 362], the pIC50 was 7.27.

In the case of `O=C(Cc1cccc(-n2ccnc2)c1)Nc1nnc(CCCCc2nnc(NC(=O)Cc3cccc(-n4ccnc4)c3)s2)s1` [Compound 363], the pIC50 was less than 4.70.

Another test deals with recombinant form of Glutaminase 1 (GAC) (Homo sapiens, UniProt O94925). Kind of test: Recombinant enzyme assay (GAC, GDH-coupled absorbance, no preincubation). It is filed as biochemical. The settings on record: read-out: GAC Delta N2 IC50 no preinc. On the procedure: Enzymatic reaction was started with the addition of 50 μL of enzyme solution (50 mM Tris-HCl pH 8.0, 0.2 mM EDTA, 150 mM K2HPO4, 0.1 mg/ml BSA, 1 mM DTT, 10 ppm antifoam, 4 units/ml GDH, 4 mM adenosine diphosphate, and 4 nM GAC) and read in a Molecular Devices M5 plate reader at 20° C. The plate reader was configured to read absorbance (λ=340 nm) in kinetic mode for 15 minutes. Data was recorded as milli-absorbance units per minute and slopes were compared to a control compound and a DMSO-only control on the same plate. Compounds with slopes less than the DMSO control were considered inhibitors and plate variability was assessed using the control compound.
Consider `CC[C@](O)(C(=O)Nc1nnc(CCCCc2nnc(NC(=O)[C@@](O)(CC)c3ccccc3)s2)s1)c1ccccc1` (single isomer, unassigned) [Compound 144], for which the pIC50 is less than 4.70.

In the case of `O=C(Cc1nnc(CCSCCc2nnc(NC(=O)C3CCOCC3)s2)s1)C1CCOCC1` [Compound 108], the pIC50 is less than 4.70.

For `O=C(Nc1nnc(CCCCc2nnc(NC(=O)C3COc4ccccc43)s2)s1)C1COc2ccccc21` (stereo not drawn) [Compound 135], the pIC50 is 6.52.

`O=C(N[C@@H](CO)C(=O)Nc1nnc(CCSCCc2nnc(NC(=O)[C@H](CO)NC(=O)OCc3ccccc3)s2)s1)OCc1ccccc1` [Compound 138]: the pIC50 is 6.12.

As to `CC(C)(C)c1ccc(CC(=O)Nc2nnc(CCCCc3nnc(NC(=O)Cc4ccc(C(C)(C)C)cc4)s3)s2)cc1` [Compound 191], the pIC50 is less than 4.70.

On to `CC(C)(C)OC(=O)Nc1ccc(CC(=O)Nc2nnc(CCCCc3nnc(NC(=O)Cc4ccc(NC(=O)OC(C)(C)C)cc4)s3)s2)cc1` [Compound 192], for which the pIC50 is less than 4.70.

Consider `O=C(Cc1cc2ccccc2o1)Nc1nnc(CCSCCc2nnc(NC(=O)Cc3cc4ccccc4o3)s2)s1` [Compound 193], for which the pIC50 was 5.47.

`COc1cc(CC(=O)Nc2nnc(CCSCCc3nnc(NC(=O)Cc4cc(OC)cc(OC)c4)s3)s2)cc(OC)c1` [Compound 202]: the pIC50 is 6.74.

Consider `O=C(Cc1ccc(Cl)s1)Nc1cnc(CCSCCc2nnc(NC(=O)Cc3ccc(Cl)s3)s2)s1` [Compound 206], for which the pIC50 was less than 4.70.

For `O=C(Cc1cc2ccccc2s1)Nc1cnc(CCSCCc2nnc(NC(=O)Cc3cc4ccccc4s3)s2)s1` [Compound 207], the pIC50 was 4.89.

Regarding `CC1(C)O[C@@H](C(=O)Nc2nnc(CCCCc3nnc(NC(=O)[C@@H]4OC(C)(C)O[C@H]4c4ccccc4)s3)s2)[C@H](c2ccccc2)O1` [Compound 223], the pIC50 is less than 4.70.

As to `COc1cccc(CC(=O)Nc2nnc(CCSCc3nnc(NC(=O)Cc4cccc(OC)c4)s3)s2)c1` [Compound 250], the pIC50 is 6.92.

`CCOc1ccccc1CC(=O)Nc1nnc(CCCCc2nnc(NC(=O)Cc3ccccc3OC)s2)s1` [Compound 300]: the pIC50 is 6.80.

Take `O=C(O)Cc1cccc(CC(=O)Nc2nnc(CCCCc3nnc(NC(=O)Cc4cccc(CC(=O)O)c4)s3)s2)c1` [Compound 313]: the pIC50 was 6.57.

As to `Nc1cccc(CC(=O)Nc2nnc(CCCCc3nnc(NC(=O)Cc4cccc(N)c4)s3)s2)c1` [Compound 329], the pIC50 is 6.77.

With `O=C(Cc1ccccc1)Nc1ccc(CCCCc2nnc(NC(=O)Cc3cccc(O)c3)s2)nn1` [Compound 337], the pIC50 is 7.12.
